Literature values, collected in patent EP1358311B1, “CLEANING COMPOSITIONS” (Unilever N.V., priority 2001, dated 2002).

Details: for Water Solubility (g/100g): at 20°C, other common materials, listed by contrast

Structure (SMILES)	Water Solubility (g/100g)	Water Solubility (grams/100 grams water) (saturated solution in 100 grams of deionised water at 20°C, highly water-soluble materials)
O=P(O)(O)OP(=O)(O)OP(=O)(O)O [Sodium tripolyphosphate anhydrous]	15 g/100g	–
O=BO[O-].[Na+] [Sodium perborate anhydrous]	3.7 g/100g	–
NC(N)=O [Urea]	–	>100 grams/100 grams water
